Measured values reported in PubChem BioAssay (NCI).
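Interpolation was linear, between the two tested concentrations surrounding the appropriate level; five concentrations were tested over 48 hours in 96-well plates. TGI denotes the concentration required for complete inhibition of growth.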

Tests used:
Experiment in all cases: DTP human tumour cell line panel, 48 h
[1] = system: IGROV1 ovarian
[2] = system: NCI-H460 lung
[3] = system: SK-OV-3 ovarian
[4] = system: M19-MEL melanoma
[5] = system: SK-MEL-28 melanoma
[6] = system: MALME-3M melanoma
[7] = system: SNB-75 CNS
[8] = system: RPMI-8226 leukemia
[9] = system: SF-295 CNS
[10] = system: K-562 leukemia
[11] = system: LXFL 529 NSCLC
[12] = system: HL-60(TB) leukemia
[13] = system: SK-MEL-2 melanoma
[14] = system: HOP-62 NSCLC
[15] = system: OVCAR-3 ovarian
[16] = system: SK-MEL-5 melanoma
[17] = system: NCI-H23 lung
[18] = system: DLD-1 colon
[19] = system: SF-268 CNS
[20] = system: KM12 colon
[21] = system: OVCAR-5 ovarian
[22] = system: MOLT-4 leukemia
[23] = system: UACC-62 melanoma
[24] = system: SNB-19 CNS
[25] = system: HOP-92 NSCLC
[26] = system: COLO 205 colon
[27] = system: HCT-116 colon
[28] = system: UO-31 renal
[29] = system: NCI-H226 lung
[30] = system: HT29 colon
[31] = system: CCRF-CEM leukemia
[32] = system: SF-539 CNS
[33] = system: SW-620 colon
[34] = system: A549 NSCLC
[35] = system: UACC-257 melanoma
[36] = system: TK-10 renal
[37] = system: NCI-H522 lung
[38] = system: HOP-18 NSCLC
[39] = system: U251 CNS
[40] = system: EKVX NSCLC
[41] = system: SR leukemia
[42] = system: ACHN renal
[43] = system: LOX IMVI melanoma
[44] = system: MDA-MB-435
[45] = system: CAKI-1 renal
[46] = system: HCC-2998 colon
[47] = system: RXF 393 renal
[48] = system: MDA-N
[49] = system: OVCAR-4 ovarian
[50] = system: NCI/ADR-RES ovarian
[51] = system: PC-3 prostate
[52] = system: HCT-15 colon
[53] = system: MDA-MB-231 breast
[54] = system: BT-549 breast
[55] = system: T-47D breast
[56] = system: HS 578T breast
[57] = system: OVCAR-8 ovarian
[58] = system: MCF7 breast
[59] = system: SN12C renal
[60] = system: DU-145 prostate
[61] = system: 786-0 renal
[62] = system: A498 renal

Measured: TGI

COc1cc(C2C(Cl)C(=O)N2NC(=O)c2ccc(NC(C)=O)cc2)cc(OC)c1OC (configuration not stated)
not listed: [40] | [41] | [42] | [43] | [44] | [45] | [46] | [47] | [48] | [49] | [50] | [51] | [52] | [53] | [54] | [55] | [56] | [57] | [58] | [59] | [60] | [61] | [62]
> 100 µM: all other assays above

Nc1cc2[nH]c(=O)c(=O)[nH]c2cc1N
not listed: [4] | [11] | [18] | [38]
> 100 µM: all other assays above
